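Where inhibition never reached the appropriate level, the endpoint shown equals the highest concentration tested. Otherwise, values were interpolated linearly from a five-concentration, 48-hour dose response in 96-well plates. GI50 = concentration required for 50% inhibition of growth. TGI: concentration producing complete growth inhibition.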
test system: PC-3 prostate; assay: NCI-60 cell line screen, 48 h

Compound | GI50 [µM] | TGI [µM]
COc1cc(OC)c2sc(-c3ccc(-n4cncc4-c4cc(OC)c(OC)c(OC)c4)cc3)nc2c1 | 2.54 | > 100
CN(C)CCNc1nc2ccccc2c2c(=O)c3cc(F)ccc3sc12 | 1.7 | 3.37
O=C(CBr)c1ccc2cc(Br)c3ccccc3c2c1 | – | 53.1

test system: ACHN renal; assay: NCI-60 cell line screen, 48 h

Compound | GI50 [µM] | TGI [µM]
Cn1cc(-c2csc(-c3cn(C)c4ccc(F)cc34)n2)c2cnccc21 | 1.84 | 3.26
COc1cc(OC)c2sc(-c3ccc(-n4cncc4-c4cc(OC)c(OC)c(OC)c4)cc3)nc2c1 | 6.67 | > 100
CN(C)CCNc1nc2ccccc2c2c(=O)c3cc(F)ccc3sc12 | 1.65 | 3.01
O=C(CBr)c1ccc2cc(Br)c3ccccc3c2c1 | – | > 100

test system: U251 CNS; assay: NCI-60 cell line screen, 48 h

Compound | GI50 [µM] | TGI [µM]
Cn1cc(-c2csc(-c3cn(C)c4ccc(F)cc34)n2)c2cnccc21 | 1.8 | 3.23
COc1cc(OC)c2sc(-c3ccc(-n4cncc4-c4cc(OC)c(OC)c(OC)c4)cc3)nc2c1 | 4.15 | > 100
O=C(CBr)c1ccc2cc(Br)c3ccccc3c2c1 | – | > 100

test system: HL-60(TB) leukemia; assay: NCI-60 cell line screen, 48 h

Compound | GI50 [µM] | TGI [µM]
Cn1cc(-c2csc(-c3cn(C)c4ccc(F)cc34)n2)c2cnccc21 | 1.93 | 3.87
COc1cc(OC)c2sc(-c3ccc(-n4cncc4-c4cc(OC)c(OC)c(OC)c4)cc3)nc2c1 | 3.3 | > 100
O=C(CBr)c1ccc2cc(Br)c3ccccc3c2c1 | – | 69.6
COc1ccc(-c2cc(-c3ccc(Nc4ccnc5cc(Cl)ccc45)cc3)nc(N3CCOCC3)n2)cc1 | 4.8 | > 100

test system: EKVX NSCLC; assay: NCI-60 cell line screen, 48 h

Compound | GI50 [µM] | TGI [µM]
Cn1cc(-c2csc(-c3cn(C)c4ccc(F)cc34)n2)c2cnccc21 | 1.87 | 3.7
COc1cc(OC)c2sc(-c3ccc(-n4cncc4-c4cc(OC)c(OC)c(OC)c4)cc3)nc2c1 | 5.09 | > 100
Cc1cn2c(/C=N/N=C(N)N)c(-c3ccc(Cl)c([N+](=O)[O-])c3)nc2s1 | – | 2.1
O=C(CBr)c1ccc2cc(Br)c3ccccc3c2c1 | – | 54.5
COc1ccc(-c2cc(-c3ccc(Nc4ccnc5cc(Cl)ccc45)cc3)nc(N3CCOCC3)n2)cc1 | > 100 | > 100

test system: HCT-116 colon; assay: NCI-60 cell line screen, 48 h

Compound | GI50 [µM] | TGI [µM]
Cn1cc(-c2csc(-c3cn(C)c4ccc(F)cc34)n2)c2cnccc21 | 1.66 | 3.06
COc1cc(OC)c2sc(-c3ccc(-n4cncc4-c4cc(OC)c(OC)c(OC)c4)cc3)nc2c1 | 3.92 | > 100
CN(C)CCNc1nc2ccccc2c2c(=O)c3cc(F)ccc3sc12 | 1.58 | 3.08
O=C(CBr)c1ccc2cc(Br)c3ccccc3c2c1 | – | > 100
COc1ccc(-c2cc(-c3ccc(Nc4ccnc5cc(Cl)ccc45)cc3)nc(N3CCOCC3)n2)cc1 | 2.96 | > 100

test system: K-562 leukemia; assay: NCI-60 cell line screen, 48 h

Compound | GI50 [µM] | TGI [µM]
Cn1cc(-c2csc(-c3cn(C)c4ccc(F)cc34)n2)c2cnccc21 | 1.7 | 3.78
COc1cc(OC)c2sc(-c3ccc(-n4cncc4-c4cc(OC)c(OC)c(OC)c4)cc3)nc2c1 | 3.83 | > 100
CN(C)CCNc1nc2ccccc2c2c(=O)c3cc(F)ccc3sc12 | 2 | 4.84
O=C(CBr)c1ccc2cc(Br)c3ccccc3c2c1 | – | 77.6
COc1ccc(-c2cc(-c3ccc(Nc4ccnc5cc(Cl)ccc45)cc3)nc(N3CCOCC3)n2)cc1 | 6.18 | > 100

test system: NCI-H522 lung; assay: NCI-60 cell line screen, 48 h

Compound | GI50 [µM] | TGI [µM]
Cn1cc(-c2csc(-c3cn(C)c4ccc(F)cc34)n2)c2cnccc21 | 1.77 | 3.34
COc1cc(OC)c2sc(-c3ccc(-n4cncc4-c4cc(OC)c(OC)c(OC)c4)cc3)nc2c1 | 3.27 | > 100
